Data reported in the supplement of paper PMC10307832.

Legend:
Test in all cases: relative viability (nuclei count vs DMSO), 5 days (fraction); higher = more cells survive
Salubrinal + Vorinostat = compound: O=C(/C=C/c1ccccc1)NC(NC(=S)Nc1cccc2cccnc12)C(Cl)(Cl)Cl [Salubrinal] + O=C(CCCCCCC(=O)Nc1ccccc1)NO [Vorinostat] (partner 1 µM)
Summary of the method: (§1)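 Lung cancer cell lines in 1536-well plates got either a single drug or a fixed anchor-drug dose together with five library-drug doses (not always all listed) in √10 steps, by pin tool, on the day after seeding. Nuclei were counted after 5 days, and relative viability is the treated-to-vehicle ratio of nuclei counts. Values are medians of duplicate plates.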

[1] = compound: Cc1ccc2nc(NCCN)c3ncc(C)n3c2c1 + Nc1ncn([C@H]2C[C@H](O)[C@@H](CO)O2)c(=O)n1 [Decitabine] (partner 2 µM)
Summary of the method: as §1

Salubrinal + Tozasertib = compound: O=C(/C=C/c1ccccc1)NC(NC(=S)Nc1cccc2cccnc12)C(Cl)(Cl)Cl [Salubrinal] + Cc1cc(Nc2cc(N3CCN(C)CC3)nc(Sc3ccc(NC(=O)C4CC4)cc3)n2)n[nH]1 [Tozasertib] (partner 0.1 µM)
Summary of the method: as §1

[2] = compound: Cc1ccc2nc(NCCN)c3ncc(C)n3c2c1 + C[C@@H](Oc1cc(-c2cnn(C3CCNCC3)c2)cnc1N)c1c(Cl)ccc(F)c1Cl [Crizotinib] (partner 1 µM)
Summary of the method: as §1

| Cell Line | relative viability (Salubrinal + Vorinostat; first compound 0.08 µM) | relative viability (Salubrinal + Vorinostat; first compound 0.253 µM) | relative viability (Salubrinal + Vorinostat; first compound 0.8 µM) | relative viability (Salubrinal + Vorinostat; first compound 2.53 µM) | relative viability (Salubrinal + Vorinostat; first compound 8 µM) | relative viability ([1]; first compound 0.04 µM) | relative viability ([1]; first compound 0.1265 µM) | relative viability ([1]; first compound 0.4 µM) | relative viability ([1]; first compound 1.265 µM) | relative viability ([1]; first compound 4 µM) | relative viability (Salubrinal + Tozasertib; first compound 0.08 µM) | relative viability (Salubrinal + Tozasertib; first compound 0.253 µM) | relative viability (Salubrinal + Tozasertib; first compound 0.8 µM) | relative viability (Salubrinal + Tozasertib; first compound 2.53 µM) | relative viability (Salubrinal + Tozasertib; first compound 8 µM) | relative viability ([2]; first compound 0.04 µM) | relative viability ([2]; first compound 0.1265 µM) | relative viability ([2]; first compound 0.4 µM) | relative viability ([2]; first compound 1.265 µM) | relative viability ([2]; first compound 4 µM) |
| --- | --- | --- | --- | --- | --- | --- | --- | --- | --- | --- | --- | --- | --- | --- | --- | --- | --- | --- | --- | --- |
| 201T | 1.08 | 0.922 | 1.03 | 1.03 | 0.933 | 0.838 | 0.818 | 0.862 | 0.901 | 0.839 | 0.873 | 0.837 | 0.933 | 0.98 | 0.967 | 1.07 | 1.06 | 1.07 | 1.09 | 1.06 |
| NCI-H2126 | 0.87 | 0.72 | 0.888 | 0.763 | 0.719 | 0.6 | 0.571 | 0.62 | 0.599 | 0.563 | 0.979 | 0.801 | 0.968 | 0.827 | 0.666 | 1.04 | 0.999 | 1.09 | 1 | 1.03 |
| HOP-62 | 0.657 | 0.498 | 0.627 | 0.563 | 0.616 | 0.24 | 0.209 | 0.241 | 0.177 | 0.234 | 0.334 | 0.378 | 0.409 | 0.347 | 0.334 | 1.01 | 0.895 | 0.811 | 0.812 | 0.835 |
| NCI-H520 | 0.755 | 0.675 | 0.787 | 0.638 | 0.67 | 0.488 | 0.466 | 0.439 | 0.529 | 0.503 | 0.501 | 0.446 | 0.44 | 0.403 | 0.469 | 0.725 | 0.699 | 0.761 | 0.791 | 0.639 |
| NCI-H1755 | 0.815 | 0.831 | 0.973 | 0.911 | 0.745 | 0.716 | 0.764 | 0.681 | 0.7 | 0.723 | 0.573 | 0.61 | 0.611 | 0.457 | 0.507 | 0.94 | 0.891 | 0.857 | 0.935 | 0.863 |
| NCI-H2023 | 0.9 | 0.7 | 0.746 | 0.737 | 0.613 | 0.225 | 0.227 | 0.241 | 0.256 | 0.2 | 0.323 | 0.286 | 0.323 | 0.236 | 0.182 | 0.702 | 0.652 | 0.733 | 0.767 | 0.414 |
| NCI-H2009 | 0.815 | 0.785 | 0.696 | 0.693 | 0.657 | 0.364 | 0.394 | 0.436 | 0.395 | 0.368 | 0.762 | 0.733 | 0.774 | 0.718 | 0.637 | 1.06 | 1.06 | 1.14 | 1.04 | 0.784 |
